These results are taken from patent US7879853B2, “4,6-disubstituted pyrimidines and their use as protein kinase inhibitors” (Bayer Schering Pharma AG, priority 2004, dated 2011).

Test [1] has as its system phosphorylated Akt1 (Ser473) in MCF7 cells. Description: Cellular PI3K/Akt pathway assay (pAkt-ELISA). Type of test: cell-based. The note with it: Homo sapiens, β-Heregulin (20 ng/ml) stimulation, 48 h, read-out: Akt pathway inhibition (pAkt-ELISA): IC50. On the procedure: In order to study the cellular activity of the compounds according to the invention, an ELISA-based assay has been established. The assay is based on a Sandwich ELISA kit (PathScan™ Phospho-Akt1 (Ser473); Cell Signaling, USA; #7160).
The assay detects endogenous levels of phosphorylated Akt1 protein. A phospho-Akt (Ser473) antibody (Cell Signaling, USA; #9271) has been coated onto the microwells. After incubation with cell lysates, the phosphorylated Akt protein is captured by the coated antibody. Following extensive washing, Akt1 monoclonal antibody (Cell Signaling, USA; #2967) is added to detect the captured phospho-Akt1 protein. HRP-linked anti-mouse antibody (Cell Signaling, USA; #7076) is then used to recognize the bound detection antibody. […] The magnitude of optical density for this developed color is proportional to the quantity of phosphorylated Akt1 protein. […]
Cells are harvested under nondenaturating conditions and lysed with brief sonification in 1× cell lyses buffer (20 mM Tris (pH7.5), 150 mM NaCl, 1 mM ethylene diaminetetraacetate (EDTA), 1 mM ethylene glycolbis-(2-aminoethyl)-N,N,N′,N′-tetraacetic acid (EGTA), 1% Triton X-100, 2.5 mM sodium pyrophosphate, 1 mM β-glycerolphosphate, 1 mM Na3VO4, 1 μg/ml leupeptin). […] The absorbance is read at 450 nm (Wallac Victor2; Perkin Elmer, USA) within 30 minutes after adding STOP solution. […]
For orientation: In an ELISA, binding on a coated surface is turned into a signal by an enzyme label.

For test [2], the system named is MDA-MB-468 cells. Description: Cellular proliferation/cytotoxicity assay (Alamar Blue), MDA-MB-468. Type of test: cell-based. The following applies: Homo sapiens; MDA-MB-468, 48 hours, Alamar Blue (Resazurin); read-out: Anti-proliferative/cytotoxic activity: IC50 MDA468. On the procedure: The anti-proliferative activity of the compounds as described herein, is evaluated using MCF7 and MDA-MB-468 (ATCC HTB-22 and HTB-132) cell lines and the Alamar Blue (Resazurin) cell viability assay (O'Brien et al. Eur J Biochem 267, 5421-5426, 2000). Resazurin is reduced to the fluorescent rescrufin by cellular dehydrogenase activity, correlating with viable, proliferating cells. Test compounds are dissolved as 10 mM solutions in DMSO and subsequently diluted. MCF7 or […] cells were seeded into 96 well flat bottom plates at a density of 10000 cells/well (MCF7) or 5000 cells/well (MDA-MB-468) in a volume of 200 μl/well. 24 hours after seeding, 1 μl each of the compound dilutions are added into each well of the 96 well plates. Each compound dilution is tested as at least as duplicates. Wells containing untreated control cells were filled with 200 μl DMEM containing 0.5% v:v DMSO. The cells are then incubated with the substances for 48 hours at 37° C. in a humidified atmosphere containing 5% carbon dioxide. To determine cell viability, 20 μl of a Resazurin solution (Sigma; 90 mg/l) are added. After 4 hours incubation at 37° C. the fluorescence is measured at an extinction of 544 nm and an emission of 590 nm (Wallac Victor2; Perkin Elmer, USA). For the calculation of the cell viability the emission value from untreated cells is set as 100% viability and the emission rates of treated cells are set in relation to the values of untreated cells. Viabilities are expressed as % values. The corresponding IC50 values of the compounds for cytotoxic activity are determined from the concentration-effect curves by means of non-linear regression. The analysis of the data is performed using a biostatistical program (GraphPad Prism, USA).

On to `CC(C)(N)c1ccc(C(=O)Nc2ccc(Nc3cc(-c4cccc5c4oc4ccccc45)ncn3)cc2)cc1` [Compound 69, 4-(1-Amino-1-methyl-ethyl)-N-[4-(6-dibenzofuran-4-yl-pyrimidin-4-ylamino)-phenyl]-benzamide trifluoracetate], for which the IC50 in test [1] was 6 µM; in test [2], at most 6.05 µM.
